# From PMC6691773, “Non-covalent immunoproteasome inhibitors induce cell cycle arrest in multiple myeloma MM.1R cells” (Journal of Enzyme Inhibition and Medicinal Chemistry, 2019)
# Columns and labels:
# [1] = molecular target: Human 20S immunoproteasome β1i (Homo sapiens, UniProt P28065); assay: 20S immunoproteasome inhibition, β1i chymotrypsin-like activity (Ac-Pro-Ala-Leu-AMC)
# Description: (§3) Human 20S immunoproteasome was incubated at 30 °C at a final concentration of 0.004 mg/mL with test compound present at variable concentrations. The reaction buffer consisted of 50 mM Tris HCl, pH 7.4, 10 mM NaCl, 25 mM KCl, 1 mM MgCl2, 0.03% SDS. Product release from substrate hydrolysis (50 µM) was monitored continuously over a period of 10 min.
# [2] = molecular target: Human 20S immunoproteasome β5i (Homo sapiens, UniProt P28062); assay: 20S immunoproteasome inhibition, β5i chymotrypsin-like activity (Suc-Leu-Leu-Val-Tyr-AMC); conditions: for inhibition at 100 µM: read-out: inhibition of one or two ChT-L activities
# Description: as §3
# [3] = molecular target: β5c subunit of constitutive proteasome; parameters: method as in PMID 24561716, PMID 24946214; conditions: ChT-L activity of constitutive proteasome; read-out: Ki against β5c subunit; cited from earlier work
# pNF-kB in MM.1R cells = assay: pNF-kB level by western blot; format: cell-based, human; conditions: 24 h
# Description: (§1) To test the inhibitory effect on proteasome activity, ubiquitin, cyclins, CDK, NF-kB and pNF-kB were assessed by western blot. […] After 24 h, cells were collected and protein extracted for analysis. Protein extraction and western blot analysis were performed as previously described.
# (§2) Briefly, a total of 15 µg of proteins were loaded in each lane and specific antibodies were used to detect ubiquitin (Abcam, Cambridge, UK), cyclin A, cyclin B, cyclin D1, CDK1, CDK4/6, NF-kB, pNF-kB, PARP, and Caspase-3 (Cell Signaling, Danvers, MA, United States). Beta actin (Cell Signaling), was used on stripped blots as loading control. The images have been acquired using a dedicated software and densitometric data were expressed as integrated intensity and reported as means and SEM.
# ubiquitin in MM.1R cells = assay: Ubiquitin accumulation by western blot; format: cell-based, human; conditions: 24 h, versus ctrl
# Description: as §1, §2
# To test the efficacy of these compounds in inhibiting ubiquitinated protein degradation, a western blot analysis of ubiquitin was performed (Figure 3). In fact, considering that proteasome inhibition leads the cells to accumulate ubiquitinated protein into the cytoplasm, we decided to assess the changes in levels of total ubiquitinated proteins indirectly, by detecting changes in total ubiquitin levels, by western blot analysis. […] It is worth noting that these changes were dose-dependent, this adding an additional level of confidence in our experimental approach.
# PARP in MM.1R cells = assay: PARP expression by western blot; format: cell-based, human; conditions: 24 h
# Description: as §1, §2
# Caspase-3 in MM.1R cells = assay: Caspase-3 expression by western blot; format: cell-based, human; conditions: 24 h
# Description: as §1, §2
# cyclin D1 in MM.1R cells = assay: Cyclin D1 level by western blot; format: cell-based, human; conditions: 24 h, 20 µM
# Description: as §1, §2
# [4] = molecular target: T1, Human 20S immunoproteasome β2i (Homo sapiens, UniProt P40306); assay: 20S immunoproteasome inhibition, β2i trypsin-like activity (Boc-Leu-Arg-Arg-AMC); format: biochemical; conditions: 100 µM inhibitor, preliminary screening
# T1 construct: Human 20S immunoproteasome, isolated from human spleen; purchased Enzo Life Science; host or cells: human spleen (tissue-isolated)
# Description: Human 20S immunoproteasome, isolated from human spleen, was purchased from Enzo Life Science Supplier. The three distinct proteolytic activities of the 20S immunoproteasome were measured by monitoring the hydrolysis of the peptidyl 7-amino-4-methyl coumarin substrates Suc-Leu-Leu-Val-Tyr-AMC (Bachem), Boc-Leu-Arg-Arg-AMC (Bachem) and Ac-Pro-Ala-Leu-AMC (Biomol GmbH) for β5i, β2i and β1i activities of immunoproteasome, respectively. […] Inhibitor solutions were prepared from stocks in DMSO. Each independent assay was performed twice in duplicate in 96-well-plates in a total volume of 200 µL. Fluorescence of the product AMC of the substrate hydrolyses was measured using an Infinite 200 PRO microplate reader (Tecan, Männedorf, Switzerland) at 30 °C with a 380 nm excitation filter and a 460 nm emission filter.
# Human 20S immunoproteasome was incubated at 30 °C at a final concentration of 0.004 mg/mL with test compound present at variable concentrations. The reaction buffer consisted of 50 mM Tris HCl, pH 7.4, 50 mM NaCl, 0.5 mM EDTA III, 0.03% SDS. Product release from substrate hydrolysis (50 µM) was monitored continuously over a period of 10 min.
# MM.1R cells = assay: Cytotoxicity by MTT assay; format: cell-based; conditions: Homo sapiens, 24 h, dexamethasone-resistant cells, read-out: EC50 against MM.1R cells
# Description: To test the efficacy of 5 and 6 a cell viability assay was performed. Human multiple myeloma cells (MM.1R; ATCC® CRL-2975™) resistant to dexamethasone were purchased by LGC Standards (Milan, Italy) and cultured under standard conditions (37 °C, 5% CO2) with standard RPMI 1640 medium added with L-glutamine, 10% foetal bovine serum, and 1% antibiotic mixture (penicillin/streptomycin) in sterile flasks. Cells were grown for a week before the assay. Compounds 5–6 were tested at different doses (1–10-20–40-80–100 µM) in a 96 well plate for 24 h to determine the cytotoxic effect. […] At the end of the 5 h, the medium was removed and the insoluble formazan crystals were dissolved with 200 µl/well of dimethyl sulphoxide (DMSO), and the absorbance was read at 540 and 620 nm. The difference between the two absorbance values was used to calculate mean for each replicate and further assess cytotoxicity. […] Results were expressed as % of vitality and reported as means and SEM.
# To test the efficacy of compounds 5–6 in a cell system, we used dexamethasone-resistant human multiple myeloma cells (MM.1R), which are less responsive to chemotherapy, and are representative of patients in the later stages of the disease, as previously described. […] MM.1R cell survival was determined by the tetrazolium dye MTT assay and untreated cells were used as reference and assumed as the 100% of vital cells (Figure 2).
# cyclin A in MM.1R cells = assay: Cyclin A level by western blot; format: cell-based, human; conditions: 24 h, 15 and 20 µM
# Description: as §1, §2
# NF-kB in MM.1R cells = assay: NF-kB level by western blot; format: cell-based, human; conditions: 24 h
# Description: as §1, §2
# CDK1 in MM.1R cells = assay: CDK1 level by western blot; format: cell-based, human; conditions: 24 h, p < .05
# Description: as §1, §2
# cyclin B in MM.1R cells = assay: Cyclin B level by western blot; format: cell-based, human; conditions: 24 h, 20 µM
# Description: as §1, §2
# CDK4/6 in MM.1R cells = assay: CDK4/6 level by western blot; format: cell-based, human; conditions: 24 h, p < .0005
# Description: as §1, §2
Ki [1],Ki [2],inhibition at 100 µM ([1]; read-out: % of inhibition at 100 µM β1i),inhibition at 100 µM [2],inhibition at 100 µM [4],SMILES,Ki [3],pNF-kB level (pNF-kB in MM.1R cells),ubiquitin accumulation (ubiquitin in MM.1R cells; all tested concentrations),PARP expression (PARP in MM.1R cells),Caspase-3 expression (Caspase-3 in MM.1R cells),cyclin D1 level (cyclin D1 in MM.1R cells),EC50 (MM.1R cells),cyclin A level (cyclin A in MM.1R cells),ubiquitin accumulation (ubiquitin in MM.1R cells; 20 µM),NF-kB level (NF-kB in MM.1R cells),CDK-1 level (CDK1 in MM.1R cells),cyclin B level (cyclin B in MM.1R cells),CDK4/6 level (CDK4/6 in MM.1R cells)
4.9 µM,4.39 µM,–,–,–,CC(C)CCNC(=O)Cn1ccc2ncccc2c1=O [Compound 1],–,–,–,–,–,–,–,–,–,–,–,–,–
–,–,–,–,–,CC(C)CCNC(=O)Cn1ccc2c(c1=O)CCCN2 [Compound 3],10.5 µM,–,–,–,–,–,–,–,–,–,–,–,–
–,6.04 ± 0.29 µM,36%,> 70%,19%,CC(C)CCNC(=O)Cn1cc(Br)c2ncccc2c1=O [Compound 5],0.56 µM,paradoxical increase,no significant increase,No significant difference,No significant difference,able to reduce,21.2 µM,No trend of reduction,–,–,–,–,–
4.9 ± 0.04 µM,4.39 ± 0.18 µM,–,> 70%,24%,CC(C)CCNC(=O)Cn1ccc2ccc(Br)cc2c1=O [Compound 6],2.34 µM,trend of reduction,–,No significant difference,No significant difference,consistent reduction,17.8 µM,very significant (p < .005) reduction,significant increase,dose-dependent increase,changed,consistent reduction,changed
